Test results from ChEMBL document CHEMBL3045696, “CsFCelite catalyzed facile N-alkylation of 2(3H)-benzoxazolones and antimicrobial properties of 2-substituted benzoxazole and 3-substituted-2(3H)-benzoxazolone derivatives” (2011).
Values after ≈ are worked out from the molar mass of the structure shown. Active and inactive are the calls of the source. The rule behind the calls is not given here.

How the values were obtained:
Format in all cases: functional
Aspergillus niger [1] = assay: Antimicrobial activity against Aspergillus niger MTCC 282 at 50 ug after 48 hr by agar well diffusion method; details: MTCC 282, 48 h, read-out: IZ
Rhizopus arrhizus [2] = assay: Antimicrobial activity against Rhizopus oryzae MTCC 262 at 50 ug after 48 hr by agar well diffusion method; details: MTCC 262, 48 h, read-out: IZ
Candida albicans [3] = assay: Antimicrobial activity against Candida albicans MTCC 227 at 50 ug after 48 hr by agar well diffusion method; details: MTCC 227, 48 h, read-out: IZ
Saccharomyces cerevisiae [4] = assay: Antimicrobial activity against Saccharomyces cerevisiae MTCC 36 at 50 ug after 48 hr by agar well diffusion method; details: MTCC 36, 48 h, read-out: IZ
Saccharomyces cerevisiae [5] = assay: Antimicrobial activity against Saccharomyces cerevisiae MTCC 36 at 100 ug after 48 hr by agar well diffusion method; details: for zone of inhibition at 100 µg/disc: MTCC 36, 48 h, read-out: IZ
Rhizopus arrhizus [6] = assay: Antimicrobial activity against Rhizopus oryzae MTCC 262 at 100 ug after 48 hr by agar well diffusion method; details: for zone of inhibition at 100 µg/disc: MTCC 262, 48 h, read-out: IZ
Candida albicans [7] = assay: Antimicrobial activity against Candida albicans MTCC 227 at 100 ug after 48 hr by agar well diffusion method; details: for zone of inhibition at 100 µg/disc: MTCC 227, 48 h, read-out: IZ
Staphylococcus aureus = assay: Antimicrobial activity against Staphylococcus aureus MTCC 96 by broth dilution method
Klebsiella pneumoniae = assay: Antimicrobial activity against Klebsiella pneumoniae MTCC 618 by broth dilution method
Pseudomonas aeruginosa = assay: Antimicrobial activity against Pseudomonas aeruginosa MTCC 741 by broth dilution method
Aspergillus niger [8] = assay: Antimicrobial activity against Aspergillus niger MTCC 282 at 100 ug after 48 hr by agar well diffusion method; details: for zone of inhibition at 100 µg/disc: MTCC 282, 48 h, read-out: IZ
Saccharomyces cerevisiae [9] = assay: Antimicrobial activity against Saccharomyces cerevisiae MTCC 36 at 150 ug after 48 hr by agar well diffusion method; details: for zone of inhibition at 150 µg/disc: MTCC 36, 48 h, read-out: IZ
Aspergillus niger [10] = assay: Antimicrobial activity against Aspergillus niger MTCC 282 at 150 ug after 48 hr by agar well diffusion method; details: for zone of inhibition at 150 µg/disc: MTCC 282, 48 h, read-out: IZ
[11] = system: Staphylococcus epidermidis; assay: Antimicrobial activity against Staphylococcus epidermidis by broth dilution method
Escherichia coli = assay: Antimicrobial activity against Escherichia coli MTCC 443 by broth dilution method
Bacillus subtilis = assay: Antimicrobial activity against Bacillus subtilis MTCC 441 by broth dilution method
Candida albicans [12] = assay: Antimicrobial activity against Candida albicans MTCC 227 at 150 ug after 48 hr by agar well diffusion method; details: for zone of inhibition at 150 µg/disc: MTCC 227, 48 h, read-out: IZ
Rhizopus arrhizus [13] = assay: Antimicrobial activity against Rhizopus oryzae MTCC 262 at 150 ug after 48 hr by agar well diffusion method; details: for zone of inhibition at 150 µg/disc: MTCC 262, 48 h, read-out: IZ

| SMILES | MIC (Staphylococcus aureus) [µg/mL] | MIC (Klebsiella pneumoniae) [µg/mL] | MIC (Pseudomonas aeruginosa) [µg/mL] | MIC [11] [µg/mL] | MIC (Escherichia coli) [µg/mL] | MIC (Bacillus subtilis) [µg/mL] | Activity (Saccharomyces cerevisiae [5]) | Activity (Rhizopus arrhizus [6]) | Activity (Candida albicans [7]) | Activity (Aspergillus niger [8]) | Activity (Saccharomyces cerevisiae [9]) | Activity (Aspergillus niger [10]) | Activity (Candida albicans [12]) | Activity (Rhizopus arrhizus [13]) | zone of inhibition at 100 µg/disc (Saccharomyces cerevisiae [5]) [mm] | zone of inhibition at 100 µg/disc (Candida albicans [7]) [mm] | zone of inhibition at 100 µg/disc (Aspergillus niger [8]) [mm] | zone of inhibition at 150 µg/disc (Saccharomyces cerevisiae [9]) [mm] | zone of inhibition at 150 µg/disc (Aspergillus niger [10]) [mm] | zone of inhibition at 150 µg/disc (Candida albicans [12]) [mm] | further results |
| --- | --- | --- | --- | --- | --- | --- | --- | --- | --- | --- | --- | --- | --- | --- | --- | --- | --- | --- | --- | --- | --- |
| C[C@@H]1[C@H](O)[C@@H](C)/C=C/C=C/C=C/C=C/C=C/C=C/C=C/[C@H](O[C@@H]2O[C@H](C)[C@@H](O)[C@H](N)[C@@H]2O)C[C@@H]2O[C@](O)(C[C@@H](O)C[C@@H](O)[C@H](O)CC[C@@H](O)C[C@@H](O)CC(=O)O[C@H]1C)C[C@H](O)[C@H]2C(=O)O [AMPHOTERICIN B] |  |  |  |  |  |  |  |  |  |  |  |  |  |  |  |  |  |  |  |  | zone of inhibition at 50 µg/disc (Aspergillus niger [1]): 25 mm; zone of inhibition at 50 µg/disc (Rhizopus arrhizus [2]): 24 mm; zone of inhibition at 50 µg/disc (Candida albicans [3]): 23.5 mm; zone of inhibition at 50 µg/disc (Saccharomyces cerevisiae [4]): 22 mm |
| O=c1oc2ccc(Cl)cc2n1CCCN1CCOCC1 | 75 (≈ 253 µM) | 75 (≈ 253 µM) | 37.5 (≈ 126 µM) | 75 (≈ 253 µM) | 37.5 (≈ 126 µM) | 75 (≈ 253 µM) |  |  |  |  |  |  |  |  | 8 | 8 | 8 | 10 | 10 | 10 | zone of inhibition at 100 µg/disc (Rhizopus arrhizus [6]): 10 mm; zone of inhibition at 150 µg/disc (Rhizopus arrhizus [13]): 13 mm |
| O=c1oc2ccc(Cl)cc2n1CCCCl | 150 (≈ 610 µM) | 150 (≈ 610 µM) | 150 (≈ 610 µM) | 150 (≈ 610 µM) | 150 (≈ 610 µM) | 150 (≈ 610 µM) |  |  |  |  |  |  |  |  | 12 | 14 | 13 | 15 | 17 | 19 | zone of inhibition at 100 µg/disc (Rhizopus arrhizus [6]): 11 mm; zone of inhibition at 150 µg/disc (Rhizopus arrhizus [13]): 15 mm |
| CC(C)=CCn1c(=O)oc2ccc(Cl)cc21 | 150 (≈ 631 µM) | 150 (≈ 631 µM) | 75 (≈ 316 µM) | 75 (≈ 316 µM) | 150 (≈ 631 µM) | 150 (≈ 631 µM) |  | inactive |  |  |  |  |  |  | 8 | 7 | 8 | 10 | 11 | 10 | zone of inhibition at 150 µg/disc (Rhizopus arrhizus [13]): 9 mm |

Now from value to compound, other results behind:

| MIC (Staphylococcus aureus) [µg/mL] | MIC (Klebsiella pneumoniae) [µg/mL] | MIC (Pseudomonas aeruginosa) [µg/mL] | MIC [11] [µg/mL] | MIC (Escherichia coli) [µg/mL] | MIC (Bacillus subtilis) [µg/mL] | SMILES | Activity (Saccharomyces cerevisiae [5]) | Activity (Rhizopus arrhizus [6]) | Activity (Candida albicans [7]) | Activity (Aspergillus niger [8]) | Activity (Saccharomyces cerevisiae [9]) | Activity (Aspergillus niger [10]) | Activity (Candida albicans [12]) | Activity (Rhizopus arrhizus [13]) | zone of inhibition at 100 µg/disc (Saccharomyces cerevisiae [5]) [mm] | zone of inhibition at 100 µg/disc (Candida albicans [7]) [mm] | zone of inhibition at 100 µg/disc (Aspergillus niger [8]) [mm] | zone of inhibition at 150 µg/disc (Saccharomyces cerevisiae [9]) [mm] | zone of inhibition at 150 µg/disc (Aspergillus niger [10]) [mm] | zone of inhibition at 150 µg/disc (Candida albicans [12]) [mm] | further results |
| --- | --- | --- | --- | --- | --- | --- | --- | --- | --- | --- | --- | --- | --- | --- | --- | --- | --- | --- | --- | --- | --- |
| 75 (≈ 239 µM) | 150 (≈ 478 µM) | 150 (≈ 478 µM) | 150 (≈ 478 µM) | 150 (≈ 478 µM) | 150 (≈ 478 µM) | Clc1cccc(N2CCN(c3nc4ccccc4o3)CC2)c1 | inactive | inactive | inactive | inactive | inactive | inactive | inactive | inactive |  |  |  |  |  |  |  |
| 75 (≈ 303 µM) | 75 (≈ 303 µM) | 75 (≈ 303 µM) | 150 (≈ 607 µM) | 150 (≈ 607 µM) | 150 (≈ 607 µM) | OCCN1CCN(c2nc3ccccc3o2)CC1 | inactive | inactive | inactive | inactive | inactive | inactive | inactive | inactive |  |  |  |  |  |  |  |
| 150 (≈ 402 µM) | 150 (≈ 402 µM) | 75 (≈ 201 µM) | 150 (≈ 402 µM) | 150 (≈ 402 µM) | 150 (≈ 402 µM) | O=c1oc2ccc(Cl)cc2n1CCCN1CCN(c2ccccn2)CC1 | inactive | inactive | inactive | inactive | inactive | inactive | inactive | inactive |  |  |  |  |  |  |  |
